The nature of series [1]: physchem. Conditions: for Aqueous drug concentration, 10% RUBUSOSIDE: Table 8, 10% w/v rubusoside (SFA) water solution. The method, then: Solubility test methods: A compound with low solubility was selected and weighed into multiple centrifuge tubes. Each experimental tube received a known amount of the solubilizing agent being tested. The control tubes remained only with the compound. The same volume, 1 mL, unless otherwise indicated, of deionized and distilled water was added to each tube. Alternatively, a set percentage of water solutions containing the solubilizer to be tested (e.g., 5% w/v or 10% w/v) were prepared separately. In these cases, the solubilizer-water solutions were added directly to the tubes containing the low-solubility compound. The tubes were then vortexed briefly and then sonicated for 60 min at temperature of 50° C. unless otherwise indicated. After sonication, the tubes were placed on an orbital shaker at a speed of 80 rpm in an incubator set at 25° C. for at least 24 hr. The tubes were then centrifuged at 4000 rpm for 10 min. The supernatant solution was passed through a 0.2 μm or 0.45 μm filter and analyzed for the concentration of the low-solubility compound, and sometimes the solubilizing compound, by HPLC or UV-Vis spectrophotometer.
The system was computer controlled, and the results were analyzed using Empower software. Calibrations curves were constructed using known concentrations of the compounds and were used to quantify the concentrations of the compounds dissolved in solution. A more complete description of the HPLC procedure for some of the diterpene glycosides is found in G. Chou et al., “Quantitative and fingerprint analyses of Chinese sweet tea plant (Rubus suavissimus S. Lee),” J. Agric. Food Chem., vol.
The ratio of peak areas was used to calculate the increase in water solubility in the absence or presence of solubilizers.

The conditions of series [2]: cited from earlier work; for Aqueous drug concentration, AQUEOUS SOLUTION: Table 8, without rubusoside, same values as published ones of Table 1; for Water solubility in words: The Merck Index (1996) or Material Safety Data Sheets.
The nature of series [3]: Estimated safe daily consumption of steviol glycosides. From the text:
Some diterpene glycosides have been approved by the FDA as sweeteners (e.g., rebaudioside A).

Setting [4] is: 25 °C, aqueous with cosolvent or surfactant or cyclodextrin, thermodynamic from solid, Solubility in water with solubilizer.
The mark [5] stands for this setting: 25 °C, aqueous with cosolvent or surfactant or cyclodextrin, thermodynamic from solid, Solubility in water with solubilizer, natural solubilizer (rubusoside) 10% w/v (100 mg in 1 ml).

Molecules are shown by their SMILES. ≈ marks a conversion by molar mass, not a printed value.

On to `Cc1c(C)c2c(c(C)c1O)CC[C@@](C)(CCC[C@H](C)CCC[C@H](C)CCCC(C)C)O2` [Alpha-Tocopherol (VE), Alpha-tocopherol], for which, in series [1], the “Solubility in water with solubilizer” value was 13,250 μg/mL and the Solubility increase factor entry is on record as “Many”.

For `C[C@@H]1[C@H](O)[C@@H](C)/C=C/C=C/C=C/C=C/C=C/C=C/C=C/[C@H](O[C@@H]2O[C@H](C)[C@@H](O)[C@H](N)[C@@H]2O)C[C@@H]2O[C@](O)(C[C@@H](O)C[C@@H](O)[C@H](O)CC[C@@H](O)C[C@@H](O)CC(=O)O[C@H]1C)C[C@H](O)[C@H]2C(=O)O` [Amphotericin B, reference compound], the “Aqueous drug concentration, AQUEOUS SOLUTION” value in series [2] is 82 µg/mL. Also, the “Aqueous drug concentration, 10% RUBUSOSIDE” value in series [1] stood at 200 µg/mL.

Regarding `C[C@@H]1CC[C@H]2[C@@H](C)C(=O)O[C@@H]3O[C@@]4(C)CC[C@@H]1[C@]32OO4` [Artemisinin, reference compound], the Solubility increase factor in series [1] was 5. Further, the solubility in series [1] (setting [4]) is 280 µg/mL (≈ 0.992 mM).

In the case of `COc1cc(CNC(=O)CCCC/C=C/C(C)C)ccc1O` [Capsaicin, reference compound], in series [1], the “Concentration in water without rubusoside (control sample)” value was determined as 57 µg/mL and the Solubility increase factor worked out at 86. Moreover, the “Concentration dissolved in rubusoside water solution” value in series [1] (20 mg rubusoside in 1 ml water) came to 589 µg/mL. Besides, the concentration in solution in series [1] (setting [5]) (solubility) came to 4920 µg/mL (≈ 16.1 mM). Moreover, the concentration in solution in series [1] (25 °C, water, thermodynamic from solid, Solubility) (solubility) came to 57 µg/mL (≈ 0.187 mM).

`Cc1ccc(-c2cc(C(F)(F)F)nn2-c2ccc(S(N)(=O)=O)cc2)cc1` [Celecoxib, reference compound]: in series [1], the “Concentration in water without rubusoside (control sample)” value is given as “not detected” and the Solubility increase factor entry is “Many”. The compound further registered a solubility in series [1] (setting [4]) of 488 µg/mL (≈ 1.28 mM).

Consider `COC1=C(OC)C(=O)C(C/C=C(\C)CC/C=C(\C)CC/C=C(\C)CC/C=C(\C)CC/C=C(\C)CC/C=C(\C)CC/C=C(\C)CC/C=C(\C)CC/C=C(\C)CCC=C(C)C)=C(C)C1=O` [Coenzyme Q10], for which, in series [1], the “Solubility in water with solubilizer” value came to 111 µg/mL and the Solubility increase factor worked out at 1110. Further, in series [1] (setting [4]), the concentration in solution (solubility) came to 111 µg/mL (≈ 0.129 mM).

On to `CC[C@H]1OC(=O)[C@H](C)[C@@H](O[C@H]2C[C@@](C)(OC)[C@@H](O)[C@H](C)O2)[C@H](C)[C@@H](O[C@@H]2O[C@H](C)C[C@H](N(C)C)[C@H]2O)[C@](C)(O)C[C@@H](C)C(=O)[C@H](C)[C@@H](O)[C@]1(C)O` [Erythromycin, reference compound], for which the Solubility increase factor in series [1] is on record as 11. The concentration in solution in series [1] (setting [4]) (solubility) was 5330 µg/mL (≈ 7.27 mM).

In series [1], `O=C(O)c1cc(O)c(O)c(O)c1` [Gallic acid] gave a Solubility increase factor of 9.6. The “Amount dissolved in 1 ml water” value was determined as 106 mg in series [1] (400 mg rubusoside, 25° C.) and 212 mg in series [1] (800 mg rubusoside, 37° C.). Further, the “Fold increase over amount dissolved in plain water” value in series [1] (800 mg rubusoside, 37° C.) is 19.3 fold. The compound further displayed a solubility in series [1] (setting [4]) of 106000 µg/mL (≈ 623 mM).

In the case of `CCC(C)n1ncn(-c2ccc(N3CCN(c4ccc(OCC5COC(Cn6cncn6)(c6ccc(Cl)cc6Cl)O5)cc4)CC3)cc2)c1=O` (stereo not shown) [Itraconazole, reference compound], in series [1], the “Concentration in water without rubusoside (control sample)” value is “not detected”, the “Solubility in water with solubilizer” value is 21 µg/mL and the Solubility increase factor result was “Many”.

In the case of `C[C@@H]1[C@H](O)[C@@H](C)/C=C/C=C/CC/C=C/C=C/C=C/C=C/C(O[C@H]2O[C@H](C)[C@@H](O)[C@H](N)[C@@H]2O)CC2O[C@](O)(CC(O)C(O)CCC(O)CC(O)CC(O)CC(=O)O[C@H]1C)CC(O)C2C(=O)O` (stereo partly shown) [Nystatin, reference compound], the “Aqueous drug concentration, AQUEOUS SOLUTION” value in series [2] was 66 µg/mL. In addition, the “Aqueous drug concentration, 10% RUBUSOSIDE” value in series [1] was 1,100 μg/ml.

`COc1cc([C@@H]2c3cc4c(cc3[C@H](O)[C@H]3COC(=O)[C@H]23)OCO4)cc(OC)c1OC` [Podophyllotoxin, reference compound]: the “Water solubility in words” value in series [2] is reported as “nearly insoluble”. In series [1] (25 °C, aqueous with cosolvent or surfactant or cyclodextrin, thermodynamic from solid), this compound had a solubility of 919 µg/mL (≈ 2.22 mM).

`CC(C)c1cccc(C(C)C)c1O` [Propofol, reference compound]: in series [1], the “Concentration in water without rubusoside (control sample)” value is “no measurable propofol” and the Solubility increase factor came to 74. In addition, the solubility in series [1] (setting [4]) was 11700 µg/mL (≈ 65.6 mM).

For `CO[C@H]1C[C@@H]2CC[C@@H](C)[C@@](O)(O2)C(=O)C(=O)N2CCCC[C@H]2C(=O)O[C@H]([C@H](C)C[C@@H]2CC[C@@H](O)[C@H](OC)C2)CC(=O)[C@H](C)/C=C(\C)[C@@H](O)[C@@H](OC)C(=O)[C@H](C)C[C@H](C)/C=C/C=C/C=C/1C` [Rapamycin (Sirolimus), Rapamycin, reference compound], in series [2], the “Water solubility in words” value is “insoluble”. The same compound gave a Solubility increase factor in series [1] of 92. Moreover, the solubility in series [1] (setting [4]) turned out to be 240 µg/mL (≈ 0.263 mM).

`C[C@@H]1O[C@@H](OC[C@H]2O[C@@H](Oc3c(-c4ccc(O)c(O)c4)oc4cc(O)cc(O)c4c3=O)[C@H](O)[C@@H](O)[C@@H]2O)[C@H](O)[C@H](O)[C@H]1O` [Rutin]: the “Water solubility in words” value in series [2] is recorded as “nearly insoluble”. In series [1] (setting [4]), the solubility amounted to 1750 µg/mL (≈ 2.87 mM).

For the compound `COc1cc(C2Oc3cc([C@H]4Oc5cc(O)cc(O)c5C(=O)[C@@H]4O)ccc3OC2CO)ccc1O` (stereo partly shown) [Silybin (Silibinin), Silybin], in series [1], the Solubility increase factor entry is on record as “Many”. The solubility in series [1] (setting [4]) is 150 µg/mL (≈ 0.311 mM).

Regarding `Cc1coc2c1C(=O)C(=O)c1c-2ccc2c1CCCC2(C)C` [Tanshinone IIA], in series [2], the “Water solubility in words” value is “nearly insoluble”. The solubility in series [1] (setting [5]) was ~53.3 µg/mL (≈ 0.181 mM); in series [1] (25 °C, aqueous with cosolvent or surfactant or cyclodextrin, thermodynamic from solid, Solubility in water with solubilizer, natural solubilizer (rubusoside) 20% w/v (200 mg in 1 ml)), ~128 µg/mL (≈ 0.434 mM).

Consider `C=C1C[C@@]23CC[C@H]4[C@@](C)(CCC[C@@]4(C)C(=O)O[C@@H]4O[C@H](CO)[C@@H](O)[C@H](O)[C@H]4O)[C@@H]2CC[C@]1(O[C@@H]1O[C@H](CO)[C@@H](O)[C@H](O)[C@H]1O)C3` [rubusoside, b-D-glucosyl ester of 13-O-b-D-glucosyl-steviol], for which the “Daily consumption that is safe and has no adverse effect” value in series [3] was 8 mg rubusoside/kg body weight. Also, the No-observed-effect level entry in series [3] (estimate based on 383 mg/kg expressed as steviol) is recorded as “up to 766 mg rubusoside/kg body weight”. In addition, in series [1], the Water solubility entry is listed as “about 60 g/100 mL water”. Also, the solubility in series [1] (25 °C, water, Solubility in water) is ~400000 µg/mL (≈ 622 mM); in series [1] (37 °C, water, Solubility in water) it was ~800000 µg/mL (≈ 1240 mM).

As usually defined, the solubility is how much of the substance goes into solution per volume. A lower solubility goes with little dissolved substance.
